What all share (type): functional
Common to all, as to conditions: time 16-18 hrs

The test system of assay [1] is Staphylococcus aureus. The experiment in a line: Antibacterial activity against methicillin-resistant Staphylococcus aureus ATCC 33591 after 16 to 18 hrs by broth microdilution method. On the technique in general: In broth dilution the organism is exposed to a series of concentrations in liquid medium.
The test system of assay [2] is Staphylococcus aureus. The experiment in a line: Antibacterial activity against methicillin-resistant Staphylococcus aureus ATCC 43300 after 16 to 18 hrs by broth microdilution method.
In assay [3] the test system is Staphylococcus aureus. In words: Antibacterial activity against methicillin-resistant Staphylococcus aureus Bio-090770 after 16 to 18 hrs by broth microdilution method.
Assay [4] relates to Staphylococcus aureus. In words: Antibacterial activity against methicillin-susceptible Staphylococcus aureus ATCC 29213 after 16 to 18 hrs by broth microdilution method.
Assay [5] concerns Staphylococcus aureus. In words: Antibacterial activity against methicillin-susceptible Staphylococcus aureus ATCC 25923 after 16 to 18 hrs by broth microdilution method.
For assay [6], the system named is Staphylococcus aureus. In words: Antibacterial activity against methicillin-susceptible Staphylococcus aureus ATCC 13709 after 16 to 18 hrs by broth microdilution method.
The subject of assay [7] is Staphylococcus epidermidis. The experiment in a line: Antibacterial activity against Staphylococcus epidermidis after 16 to 18 hrs by broth microdilution method.
Assay [8] deals with Escherichia coli. In words: Antibacterial activity against Escherichia coli ATCC 25922 after 16 to 18 hrs by broth microdilution method.
For assay [9], the system named is Klebsiella pneumoniae. In words: Antibacterial activity against Klebsiella pneumoniae CICC 21611 after 16 to 18 hrs by broth microdilution method.
Assay [10] concerns Acinetobacter baumannii. The experiment in a line: Antibacterial activity against Acinetobacter baumannii Bio 34235 after 16 to 18 hrs by broth microdilution method.
The subject of assay [11] is Acinetobacter baumannii. In words: Antibacterial activity against drug-resistant Acinetobacter baumannii Bio 53272 after 16 to 18 hrs by broth microdilution method.

≈ marks a conversion by molar mass, not a printed value.

A word on the MIC: it is the smallest concentration in the dilution series that meets the test's criterion for growth inhibition. A higher MIC goes with a need for much substance.

With `CCCC[C@H](CN(O)C=O)C(=O)N1CCC[C@H]1c1nnc(-c2ccc3[nH]ccc3c2)s1`, the MIC in assay [1] was 4 µg/mL (≈ 9.06 µM); in assay [2], 4 µg/mL (≈ 9.06 µM); in [3] it was 8 µg/mL (≈ 18.1 µM); in [4] it was 4 µg/mL (≈ 9.06 µM); in [5], 8 µg/mL (≈ 18.1 µM); in [6] it was 4 µg/mL (≈ 9.06 µM). The MIC was 16 µg/mL (≈ 36.2 µM) in [7]; over 16 µg/mL in assay [8]; over 16 µg/mL in assay [9]; over 16 µg/mL in assay [10]; over 16 µg/mL in assay [11].
`CCCC[C@H](CN(O)C=O)C(=O)N1CCC[C@H]1c1nnc(-c2ccc(C(F)(F)F)cc2F)s1`: the MIC in [1] was determined as 0.25 µg/mL (≈ 0.512 µM); in assay [2] it was 1 µg/mL (≈ 2.05 µM); in assay [3] it was 1 µg/mL (≈ 2.05 µM); in [4], 2 µg/mL (≈ 4.09 µM); in assay [5], 2 µg/mL (≈ 4.09 µM); in assay [6], 2 µg/mL (≈ 4.09 µM). In addition, the MIC was 4 µg/mL (≈ 8.19 µM) in assay [7]; over 16 µg/mL in assay [8]; over 16 µg/mL in assay [9]; over 16 µg/mL in assay [10]; over 16 µg/mL in assay [11].
As for `CCCC[C@H](CN(O)C=O)C(=O)N1CCC[C@H]1c1nnc(-c2ncccc2F)s1`, the MIC came to 0.25 µg/mL (≈ 0.593 µM) in assay [1]; 0.25 µg/mL (≈ 0.593 µM) in [2]; 2 µg/mL (≈ 4.74 µM) in [3]; 1 µg/mL (≈ 2.37 µM) in assay [4]; 1 µg/mL (≈ 2.37 µM) in [5]; 1 µg/mL (≈ 2.37 µM) in assay [6]. The MIC in assay [7] was 1 µg/mL (≈ 2.37 µM); in [8] it was over 16 µg/mL; in [9], over 16 µg/mL; in assay [10], 16 µg/mL (≈ 38 µM); in [11], 16 µg/mL (≈ 38 µM).
`CCCC[C@H](CN(O)C=O)C(=O)N1CCC[C@H]1c1nnc(-c2ccc(C(C)(C)C)cc2)s1`: the MIC was 1 µg/mL (≈ 2.18 µM) in [1]; 1 µg/mL (≈ 2.18 µM) in assay [2]; 4 µg/mL (≈ 8.72 µM) in assay [3]; 2 µg/mL (≈ 4.36 µM) in assay [4]; 4 µg/mL (≈ 8.72 µM) in assay [5]; 2 µg/mL (≈ 4.36 µM) in assay [6]. Besides, the MIC in [7] was 4 µg/mL (≈ 8.72 µM); in assay [8] it was over 16 µg/mL; in [9] it was over 16 µg/mL; in assay [10] it was over 16 µg/mL; in assay [11], over 16 µg/mL.
For `CCCC[C@H](CN(O)C=O)C(=O)N1CCC[C@H]1c1nnc(CCC)s1`, the MIC came out at 1 µg/mL (≈ 2.71 µM) in assay [1]; 1 µg/mL (≈ 2.71 µM) in assay [2]; 4 µg/mL (≈ 10.9 µM) in assay [3]; 2 µg/mL (≈ 5.43 µM) in assay [4]; 2 µg/mL (≈ 5.43 µM) in assay [5]; 2 µg/mL (≈ 5.43 µM) in assay [6]. For the same molecule, the MIC was 2 µg/mL (≈ 5.43 µM) in assay [7]; over 16 µg/mL in assay [8]; over 16 µg/mL in assay [9]; over 16 µg/mL in assay [10]; over 16 µg/mL in [11].
`CCCC[C@H](CN(O)C=O)C(=O)N1CCC[C@H]1c1nnc(-c2ccsc2)s1`: the MIC in assay [1] amounted to 0.25 µg/mL (≈ 0.612 µM); in [2], 0.25 µg/mL (≈ 0.612 µM); in assay [3], 4 µg/mL (≈ 9.79 µM); in assay [4] it was 1 µg/mL (≈ 2.45 µM); in assay [5], 1 µg/mL (≈ 2.45 µM); in assay [6] it was 4 µg/mL (≈ 9.79 µM). For the same molecule, the MIC in assay [7] came to 2 µg/mL (≈ 4.9 µM); in [8] it was 64 µg/mL (≈ 157 µM); in assay [9], 32 µg/mL (≈ 78.3 µM); in assay [10], 32 µg/mL (≈ 78.3 µM); in [11] it was 16 µg/mL (≈ 39.2 µM).
In the case of `CCCC[C@H](CN(O)C=O)C(=O)N1CCC[C@H]1c1nnc(-c2ccc(OC)c(OC)c2)s1`, the MIC in [1] worked out at 0.25 µg/mL (≈ 0.54 µM); in assay [2], 0.25 µg/mL (≈ 0.54 µM); in assay [3], 1 µg/mL (≈ 2.16 µM); in assay [4], 0.5 µg/mL (≈ 1.08 µM); in assay [5] it was 1 µg/mL (≈ 2.16 µM); in assay [6], 1 µg/mL (≈ 2.16 µM). Besides, the minimal inhibitory concentration (MIC) is 2 µg/mL (≈ 4.32 µM) in assay [7]; over 16 µg/mL in [8]; over 16 µg/mL in assay [9]; over 16 µg/mL in assay [10]; 16 µg/mL (≈ 34.6 µM) in [11].
For the molecule `CCCC[C@H](CN(O)C=O)C(=O)N1CCC[C@H]1c1nnc(-c2cc(C)nn2C)s1`, the MIC worked out at 0.25 µg/mL (≈ 0.594 µM) in assay [1]; 0.25 µg/mL (≈ 0.594 µM) in [2]; 1 µg/mL (≈ 2.38 µM) in assay [3]; 1 µg/mL (≈ 2.38 µM) in [4]; 1 µg/mL (≈ 2.38 µM) in assay [5]; 1 µg/mL (≈ 2.38 µM) in [6]. Moreover, the MIC turned out to be 1 µg/mL (≈ 2.38 µM) in assay [7]; 64 µg/mL (≈ 152 µM) in [8]; 32 µg/mL (≈ 76.1 µM) in [9]; 32 µg/mL (≈ 76.1 µM) in assay [10]; 16 µg/mL (≈ 38 µM) in assay [11].
Consider `CCCC[C@H](CN(O)C=O)C(=O)N1CCC[C@H]1c1nnc(-c2cc(OC)c(OC)c(OC)c2)s1`, for which the MIC in [1] was determined as 0.25 µg/mL (≈ 0.508 µM); in assay [2] it was 0.5 µg/mL (≈ 1.02 µM); in [3], 1 µg/mL (≈ 2.03 µM); in [4], 4 µg/mL (≈ 8.12 µM); in assay [5], 1 µg/mL (≈ 2.03 µM); in assay [6], 0.5 µg/mL (≈ 1.02 µM). In addition, the MIC is 2 µg/mL (≈ 4.06 µM) in [7]; over 16 µg/mL in assay [8]; over 16 µg/mL in assay [9]; over 16 µg/mL in [10]; over 16 µg/mL in assay [11].
In the case of `CCCC[C@H](CN(O)C=O)C(=O)N1CCC[C@H]1c1nnc(C2CCOC2)s1` (some centres undefined), the MIC in assay [1] is 1 µg/mL (≈ 2.52 µM); in assay [2], 1 µg/mL (≈ 2.52 µM); in assay [3] it was 4 µg/mL (≈ 10.1 µM); in [4], 4 µg/mL (≈ 10.1 µM); in [5], 4 µg/mL (≈ 10.1 µM); in [6] it was 4 µg/mL (≈ 10.1 µM). Further, the MIC in assay [7] was 4 µg/mL (≈ 10.1 µM); in assay [8], over 16 µg/mL; in [9], over 16 µg/mL; in assay [10], over 16 µg/mL; in assay [11], over 16 µg/mL.
In the case of `CCCC[C@H](CN(O)C=O)C(=O)N1CCC[C@H]1c1nnc(-c2ccc([N+](=O)[O-])cc2)s1`, the MIC is 0.25 µg/mL (≈ 0.559 µM) in [1]; 0.25 µg/mL (≈ 0.559 µM) in [2]; 1 µg/mL (≈ 2.23 µM) in [3]; 0.5 µg/mL (≈ 1.12 µM) in assay [4]; 0.5 µg/mL (≈ 1.12 µM) in assay [5]; 0.5 µg/mL (≈ 1.12 µM) in assay [6]. In addition, the MIC is 1 µg/mL (≈ 2.23 µM) in [7]; over 16 µg/mL in assay [8]; over 16 µg/mL in assay [9]; over 16 µg/mL in assay [10]; 8 µg/mL (≈ 17.9 µM) in assay [11].
Consider `CCCC[C@H](CN(O)C=O)C(=O)N1CCC[C@H]1c1nnc(-c2ccc(C)cc2)s1`, for which the MIC turned out to be 0.5 µg/mL (≈ 1.2 µM) in assay [1]; 1 µg/mL (≈ 2.4 µM) in assay [2]; 1 µg/mL (≈ 2.4 µM) in assay [3]; 1 µg/mL (≈ 2.4 µM) in assay [4]; 1 µg/mL (≈ 2.4 µM) in assay [5]; 1 µg/mL (≈ 2.4 µM) in [6]. Moreover, the MIC is 2 µg/mL (≈ 4.8 µM) in [7]; 16 µg/mL (≈ 38.4 µM) in assay [8]; over 16 µg/mL in [9]; over 16 µg/mL in assay [10]; 8 µg/mL (≈ 19.2 µM) in [11].
For `CCCC[C@H](CN(O)C=O)C(=O)N1CCC[C@H]1c1nnc(-c2ccccc2OC)s1`, the MIC amounted to 2 µg/mL (≈ 4.62 µM) in [1]; 0.5 µg/mL (≈ 1.16 µM) in assay [2]; 2 µg/mL (≈ 4.62 µM) in [3]; 0.5 µg/mL (≈ 1.16 µM) in [4]; 1 µg/mL (≈ 2.31 µM) in assay [5]; 1 µg/mL (≈ 2.31 µM) in assay [6]. Further, the MIC in assay [7] is 2 µg/mL (≈ 4.62 µM); in [8] it was 16 µg/mL (≈ 37 µM); in assay [9], over 16 µg/mL; in assay [10], 16 µg/mL (≈ 37 µM); in assay [11] it was 16 µg/mL (≈ 37 µM).
As for `CCCC[C@H](CN(O)C=O)C(=O)N1CCC[C@H]1c1nnc(-c2ccc(F)cc2C(F)(F)F)s1`, the MIC in [1] is 0.5 µg/mL (≈ 1.02 µM); in assay [2] it was 2 µg/mL (≈ 4.09 µM); in assay [3], 4 µg/mL (≈ 8.19 µM); in assay [4], 2 µg/mL (≈ 4.09 µM); in assay [5], 2 µg/mL (≈ 4.09 µM); in [6], 2 µg/mL (≈ 4.09 µM). Moreover, the MIC was 4 µg/mL (≈ 8.19 µM) in assay [7]; over 16 µg/mL in [8]; over 16 µg/mL in [9]; over 16 µg/mL in assay [10]; over 16 µg/mL in [11].

The record behind these values is ChEMBL document CHEMBL6121016, “Design, Synthesis, and Biological Evaluation of 1,3,4-Thiadiazole Derivatives as Novel Potent Peptide Deformylase Inhibitors for Combating Drug-Resistant Gram-Positive and -Negative Bacteria” (J Med Chem, 2025).
